Source: PubChem BioAssay (NCI)
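Cultured in 96-well plates, cells were exposed to test compound for 48 hours across five concentrations. The concentration for full growth arrest is given as TGI.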

Tests used:
Assay in all cases: inhibition of tumour cell growth, NCI panel, 48 h
[1] = tested on: HCT-116 colon
[2] = tested on: NCI-H460 lung
[3] = tested on: T-47D breast
[4] = tested on: SK-MEL-28 melanoma
[5] = tested on: NCI-H522 lung
[6] = tested on: COLO 205 colon
[7] = tested on: SR leukemia
[8] = tested on: CCRF-CEM leukemia
[9] = tested on: SF-295 CNS
[10] = tested on: SNB-75 CNS
[11] = tested on: SF-268 CNS
[12] = tested on: HOP-62 NSCLC
[13] = tested on: MDA-N
[14] = tested on: 786-0 renal
[15] = tested on: OVCAR-5 ovarian

Structure (SMILES) | TGI [1] [µM] | TGI [2] [µM] | TGI [3] [µM] | TGI [4] [µM] | TGI [5] [µM] | TGI [6] [µM] | TGI [7] [µM] | TGI [8] [µM] | TGI [9] [µM] | TGI [10] [µM] | TGI [11] [µM] | TGI [12] [µM] | TGI [13] [µM] | TGI [14] [µM] | TGI [15] [µM]
COC(=O)CCc1ccc2c(c1)CCC2 | > 100 | > 100 | > 100 | > 100 | > 100 | > 100 | > 100 | > 100 | > 100 | > 100 | > 100 | > 100 | > 100 | > 100 | > 100
CCOC(=O)Cc1ccc(Nc2nc3cc(C(F)(F)F)ccc3nc2C(=O)OCC)cc1 | > 100 | > 100 | > 100 | > 100 | > 100 | > 100 | > 100 | – | > 100 | 48.2 | > 100 | > 100 | > 100 | > 100 | > 100
COc1ccc(C)c2c1N[C@](C)([C@]1(C)Nc3c(OC)ccc(C)c3C1=O)C2=O | > 100 | > 100 | > 100 | > 100 | > 100 | > 100 | > 100 | > 100 | > 100 | – | > 100 | > 100 | > 100 | > 100 | > 100
CCOC(=O)C(NNS(=O)(=O)c1ccc(C)cc1)S(=O)(=O)C(F)(F)C(F)(F)C(F)(F)C(F)(F)F (stereo unspecified) | > 100 | > 100 | > 100 | > 100 | > 100 | > 100 | > 100 | – | > 100 | > 100 | > 100 | > 100 | > 100 | > 100 | > 100
CCCSc1cc(Cl)c(C)cc1S(=O)(=O)n1cc[nH]c1=O | > 100 | > 100 | > 100 | > 100 | > 100 | > 100 | > 100 | > 100 | > 100 | > 100 | > 100 | > 100 | > 100 | > 100 | > 100
COC(=O)c1cc(C#N)[nH]c1-c1ccsc1 | > 100 | – | > 100 | > 100 | > 100 | > 100 | > 100 | > 100 | > 100 | > 100 | > 100 | > 100 | > 100 | > 100 | > 100
N#Cc1c(C#N)c(-c2cccc([N+](=O)[O-])c2)n(-c2ccccc2)c1N | > 100 | – | > 100 | – | > 100 | > 100 | > 100 | > 100 | > 100 | 61 | > 100 | > 100 | > 100 | > 100 | > 100
Cc1ccc2c(c1)C(=O)/C(=C1/CCc3ccc(C)cc31)C2 | > 100 | > 100 | > 100 | > 100 | > 100 | > 100 | > 100 | > 100 | > 100 | 71.1 | > 100 | > 100 | > 100 | > 100 | > 100
CCOC(=O)CSc1nc2ccccc2c(=O)n1N | > 100 | > 100 | > 100 | > 100 | > 100 | > 100 | > 100 | – | > 100 | > 100 | > 100 | – | > 100 | > 100 | > 100
CC(=O)N1NC(c2ccccc2)=CC(=O)/C1=C/C(=O)c1ccccc1 | > 100 | > 100 | > 100 | > 100 | 57.2 | > 100 | 57.8 | > 100 | > 100 | – | 99.3 | > 100 | > 100 | > 100 | > 100
COc1ccc(-c2oc3c(CC(=O)O)cccc3c(=O)c2OC)cc1 | > 100 | – | > 100 | – | > 100 | > 100 | > 100 | > 100 | > 100 | – | > 100 | > 100 | > 100 | > 100 | > 100
CCOC(=O)c1sc2nc(SC)nc(Nc3ccc4c(c3)OCCCO4)c2c1N | > 100 | – | > 100 | > 100 | 37.2 | > 100 | > 100 | > 100 | 53.9 | – | > 100 | 61.5 | > 100 | > 100 | > 100
COc1cc(-c2c[nH]c3ccccc23)nc(-c2c[nH]c3ccccc23)n1 | 13.6 | 12.8 | 23.9 | – | – | 20.8 | 22.1 | 3.08 | 12.7 | 17.7 | 30.7 | 21 | 14.2 | 4.67 | 22.1
O=C(OCc1ccccc1)N1CCNCCNCC1 | > 100 | > 100 | > 100 | > 100 | > 100 | > 100 | > 100 | > 100 | > 100 | – | > 100 | > 100 | > 100 | > 100 | > 100
CC(=O)OCC1OC(n2c(C)c(N=Nc3ccc(C)cc3)c(C)c(C#N)c2=S)C(OC(C)=O)C(OC(C)=O)C1OC(C)=O (stereo unspecified) | > 100 | > 100 | > 100 | > 100 | – | > 100 | > 100 | > 100 | > 100 | > 100 | > 100 | > 100 | > 100 | 72.4 | > 100
CC1=C(C)SC(=C2Sc3c(n(C)c(=O)[nH]c3=O)S2)S1 | > 100 | > 100 | > 100 | > 100 | > 100 | > 100 | – | > 100 | > 100 | > 100 | > 100 | > 100 | > 100 | > 100 | > 100
